Assays:
FGFR2 = molecular target: T1, FGFR2 (Homo sapiens, UniProt P21802); experiment: FGFR2 Biochemical Caliper Assay (KinEASE-TK kit); conditions: 0.07 nM FGFR2; compound incubated with protein 10 min, reaction 45 min at RT; read-out: FGFR2 Cliper IC50
T1 construct: purchased Carna 08-134

FGFR1 = molecular target: T2, FGFR1 (Homo sapiens, UniProt P11362); experiment: FGFR1 Biochemical Caliper Assay (KinEASE-TK kit); conditions: ratio FGFR1/FGFR2 of the biochemical assay
T2 construct: purchased Carna 08-133
How it was run: (§1)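 KinEASE-TK HTRF readout: enzyme at 0.2 nM (FGFR1, FGFR3) preincubated 10 min at RT with 10-point 3-fold compound dilutions before TK-substrate/ATP start.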

FGFR3 = molecular target: T3, FGFR3 (Homo sapiens, UniProt P22607); experiment: FGFR3 Biochemical Caliper Assay (KinEASE-TK kit); conditions: ratio FGFR3/FGFR2 of the biochemical assay
T3 construct: purchased Carna 08-135
How it was run: as §1

SNU16 cells = experiment: SNU16 Cancer Cell Line Proliferation Assay (CellTiter-Glo); assay type: cell-based; conditions: Homo sapiens, SNU-16, 72 h
How it was run: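 Luminescent ATP read-out after 72 h at 37 °C gave IC50 values; compounds tested as 9 three-fold serial dilutions on 5000 SNU16 cells per well, with DMSO as control.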

T2 sequence (P11362 22-822): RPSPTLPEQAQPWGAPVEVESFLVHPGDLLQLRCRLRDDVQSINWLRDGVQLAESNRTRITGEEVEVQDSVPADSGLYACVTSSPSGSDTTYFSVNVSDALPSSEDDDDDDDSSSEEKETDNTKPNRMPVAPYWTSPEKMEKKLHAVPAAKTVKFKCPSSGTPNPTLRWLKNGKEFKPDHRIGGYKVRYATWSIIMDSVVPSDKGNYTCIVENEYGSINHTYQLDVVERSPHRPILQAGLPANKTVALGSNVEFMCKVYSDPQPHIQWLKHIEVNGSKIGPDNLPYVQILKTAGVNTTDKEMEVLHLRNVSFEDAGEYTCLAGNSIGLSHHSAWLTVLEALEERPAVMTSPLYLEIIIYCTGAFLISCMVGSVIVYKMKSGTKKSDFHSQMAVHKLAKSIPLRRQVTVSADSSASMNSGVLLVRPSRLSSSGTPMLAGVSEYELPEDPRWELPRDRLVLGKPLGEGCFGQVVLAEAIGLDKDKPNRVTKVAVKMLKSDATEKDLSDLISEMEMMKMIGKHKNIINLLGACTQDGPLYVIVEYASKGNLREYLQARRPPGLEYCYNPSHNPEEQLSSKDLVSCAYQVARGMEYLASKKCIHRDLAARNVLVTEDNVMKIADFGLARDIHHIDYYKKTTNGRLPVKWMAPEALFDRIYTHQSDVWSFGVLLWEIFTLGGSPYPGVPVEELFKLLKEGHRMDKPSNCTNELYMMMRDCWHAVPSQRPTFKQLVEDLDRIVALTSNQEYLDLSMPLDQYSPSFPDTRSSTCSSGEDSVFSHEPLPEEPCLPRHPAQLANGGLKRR
T3 sequence (P22607 23-806): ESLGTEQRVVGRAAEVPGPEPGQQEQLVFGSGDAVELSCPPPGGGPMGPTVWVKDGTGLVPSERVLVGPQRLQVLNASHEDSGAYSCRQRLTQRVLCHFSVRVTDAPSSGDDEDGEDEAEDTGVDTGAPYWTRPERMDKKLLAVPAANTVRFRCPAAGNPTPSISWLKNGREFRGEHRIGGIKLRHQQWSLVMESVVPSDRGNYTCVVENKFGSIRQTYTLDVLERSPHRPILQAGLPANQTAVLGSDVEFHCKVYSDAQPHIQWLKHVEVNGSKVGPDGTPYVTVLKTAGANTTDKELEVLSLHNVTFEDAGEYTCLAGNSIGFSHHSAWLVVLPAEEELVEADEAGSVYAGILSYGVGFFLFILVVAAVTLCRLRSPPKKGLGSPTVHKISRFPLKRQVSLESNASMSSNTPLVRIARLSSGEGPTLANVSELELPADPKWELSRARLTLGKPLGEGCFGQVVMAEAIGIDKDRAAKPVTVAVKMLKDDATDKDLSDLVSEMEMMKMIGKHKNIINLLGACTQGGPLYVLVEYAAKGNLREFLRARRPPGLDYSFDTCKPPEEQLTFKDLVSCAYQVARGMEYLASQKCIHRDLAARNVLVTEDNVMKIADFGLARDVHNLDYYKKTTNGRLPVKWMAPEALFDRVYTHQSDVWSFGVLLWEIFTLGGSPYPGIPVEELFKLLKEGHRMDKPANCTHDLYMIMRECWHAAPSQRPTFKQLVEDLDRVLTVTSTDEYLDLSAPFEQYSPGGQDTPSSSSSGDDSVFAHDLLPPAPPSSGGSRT
T1 sequence (P21802 22-821): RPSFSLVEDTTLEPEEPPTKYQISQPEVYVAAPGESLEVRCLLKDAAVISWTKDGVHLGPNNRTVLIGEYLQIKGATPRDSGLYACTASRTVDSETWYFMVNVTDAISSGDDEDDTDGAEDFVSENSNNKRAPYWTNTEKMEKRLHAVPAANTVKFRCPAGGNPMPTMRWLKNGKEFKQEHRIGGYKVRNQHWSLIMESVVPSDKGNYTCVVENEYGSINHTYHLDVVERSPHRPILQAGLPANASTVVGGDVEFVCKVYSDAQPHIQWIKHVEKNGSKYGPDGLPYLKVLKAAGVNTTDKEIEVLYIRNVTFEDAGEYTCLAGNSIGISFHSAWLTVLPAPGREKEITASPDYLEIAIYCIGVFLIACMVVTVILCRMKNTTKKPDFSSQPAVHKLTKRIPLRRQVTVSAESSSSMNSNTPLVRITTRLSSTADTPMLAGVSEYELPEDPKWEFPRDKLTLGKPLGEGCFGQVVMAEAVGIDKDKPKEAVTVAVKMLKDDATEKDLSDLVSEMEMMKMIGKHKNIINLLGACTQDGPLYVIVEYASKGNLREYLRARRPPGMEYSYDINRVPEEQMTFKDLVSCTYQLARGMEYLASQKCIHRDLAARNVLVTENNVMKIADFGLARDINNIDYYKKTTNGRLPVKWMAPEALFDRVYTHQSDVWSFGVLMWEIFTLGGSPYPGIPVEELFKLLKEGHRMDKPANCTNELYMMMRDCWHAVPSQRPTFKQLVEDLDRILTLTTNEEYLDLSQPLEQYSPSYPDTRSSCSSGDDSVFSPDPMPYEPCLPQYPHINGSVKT

| SMILES | IC50 (FGFR2) | IC50 (SNU16 cells) | Selectivity FGFR1/FGFR2 (FGFR1) | Selectivity FGFR3/FGFR2 (FGFR3) |
| --- | --- | --- | --- | --- |
| C=CC(=O)Nc1ccc(-c2nn3ncnc(N)c3c2-c2ccc(C(=O)NC3CC3)c(OC)c2)c(F)c1 [Compound 155, 4-(6-(4-acrylamido-2-fluorophenyl)-4-aminopyrazolo[5,1-f] [1,2,4]triazin-5-yl)-N-cyclopropyl-2-methoxybenzamide] | < 5 nM | ≤ 10 nM | A+ (Selectivity of FGFR1/FGFR2 greater or equal to 500) | A (Selectivity of FGFR3/FGFR2 less than 150 but greater than or equal to 100) |
| C=CC(=O)Nc1ccc(-c2nn3ncnc(N)c3c2-c2ccc(C(=O)NC3(C)CC3)c(OC)c2)cc1 [Compound 162, 4-(6-(4-acrylamidophenyl)-4-aminopyrazolo[5,1-f] [1,2,4]triazin-5-yl)-2-methoxy-N-(1-methylcyclopropyl)benzamide] | < 5 nM | ≤ 10 nM | A+ (Selectivity of FGFR1/FGFR2 greater or equal to 500) | A+ (Selectivity of FGFR3/FGFR2 greater or equal to 150) |
| C=C(F)C(=O)Nc1ccc(-c2nn3ncnc(N)c3c2-c2ccc(C(=O)NCC3CC3)c(OC)c2)cc1 [Compound 163] | < 5 nM | ≤ 10 nM | A+ (Selectivity of FGFR1/FGFR2 greater or equal to 500) | A+ (Selectivity of FGFR3/FGFR2 greater or equal to 150) |
| C=C(F)C(=O)Nc1ccc(-c2c(-c3ccc(C(=O)NC4CC4)c(OC)c3)c3c(N)ncc(C#N)c3n2C)c(OC)c1 [Compound 171, 4-(4-amino-7-cyano-2-(4-(2-fluoroacrylamido)-2-methoxyphenyl)-1-methyl-1H-pyrrolo[3,2-c]pyridin-3-yl)-N-cyclopropyl-2-methoxybenzamide] | < 5 nM | ≤ 10 nM | C (Selectivity of FGFR1/FGFR2 less than 200 but greater than or equal to 100) | B (Selectivity of FGFR3/FGFR2 less than 100 but greater than or equal to 25) |
| C=CC(=O)Nc1ccc(-c2nn3ncnc(N)c3c2-c2ccc(C(=O)NC3CC(F)C3)c(OC)c2)cc1 (centres unmarked) [Compound 184, 4-(6-(4-acrylamidophenyl)-4-aminopyrazolo[5,1-f][1,2,4]triazin-5-yl)-N-(3-fluorocyclobutyl)-2-methoxybenzamide] | < 5 nM | ≤ 10 nM | A (Selectivity of FGFR1/FGFR2 less than 500 but greater than or equal to 300) | A+ (Selectivity of FGFR3/FGFR2 greater or equal to 150) |
| C=CC(=O)Nc1ccc(-c2nn3ncnc(N)c3c2-c2ccc(C(=O)NCCF)c(OC)c2)cc1 [Compound 194, 4-(6-(4-acrylamidophenyl)-4-aminopyrazolo[5,1-f][1,2,4]triazin-5-yl)-N-(2-fluoroethyl)-2-methoxybenzamide] | 5 to 10 nM | ≤ 10 nM | B (Selectivity of FGFR1/FGFR2 less than 300 but greater than or equal to 200) | A+ (Selectivity of FGFR3/FGFR2 greater or equal to 150) |
| C=CC(=O)Nc1ccc(-c2nn3ncnc(N)c3c2-c2ccc(C(=O)NCC(F)F)c(OC)c2)cc1 [Compound 196, 4-(6-(4-acrylamidophenyl)-4-aminopyrazolo[5,1-f][1,2,4]triazin-5-yl)-N-(2,2-difluoroethyl)-2-methoxybenzamide] | < 5 nM | ≤ 10 nM | A (Selectivity of FGFR1/FGFR2 less than 500 but greater than or equal to 300) | A+ (Selectivity of FGFR3/FGFR2 greater or equal to 150) |

Now from value to compound, other results behind:

| IC50 (FGFR2) | IC50 (SNU16 cells) | SMILES | Selectivity FGFR1/FGFR2 (FGFR1) | Selectivity FGFR3/FGFR2 (FGFR3) |
| --- | --- | --- | --- | --- |
| < 5 nM | ≤ 10 nM | C=CC(=O)Nc1ccc(-c2c(-c3ccc(C(=O)NC4CC4)c(OC)c3)c3c(N)ncc(C#N)c3n2C)c(F)c1 [Compound 157, 4-(2-(4-acrylamido-2-fluorophenyl)-4-amino-7-cyano-1-methyl-1H-pyrrolo[3,2-c]pyridin-3-yl)-N-cyclopropyl-2-methoxybenzamide] | B (Selectivity of FGFR1/FGFR2 less than 300 but greater than or equal to 200) | B (Selectivity of FGFR3/FGFR2 less than 100 but greater than or equal to 25) |
| < 5 nM | ≤ 10 nM | C=CC(=O)Nc1ccc(-c2c(-c3ccc(C(=O)NC4CC4(F)F)c(OC)c3)c3c(N)ncc(C#N)c3n2C)cc1 (centres unmarked) [Compound 167, 4-(2-(4-acrylamidophenyl)-4-amino-7-cyano-1-methyl-1H-pyrrolo[3,2-c]pyridin-3-yl)-N-(2,2-difluorocyclopropyl)-2-methoxybenzamide] | A (Selectivity of FGFR1/FGFR2 less than 500 but greater than or equal to 300) | B (Selectivity of FGFR3/FGFR2 less than 100 but greater than or equal to 25) |
| < 5 nM | ≤ 10 nM | C=CC(=O)Nc1ccc(-c2c(-c3ccc(C(=O)NC4CC(F)C4)c(OC)c3)c3c(N)ncc(C#N)c3n2C)cc1 (centres unmarked) [Compound 168, 4-(2-(4-acrylamidophenyl)-4-amino-7-cyano-1-methyl-1H-pyrrolo[3,2-c]pyridin-3-yl)-N-(3-fluorocyclobutyl)-2-methoxybenzamide] | A+ (Selectivity of FGFR1/FGFR2 greater or equal to 500) | A+ (Selectivity of FGFR3/FGFR2 greater or equal to 150) |
| < 5 nM | ≤ 10 nM | C=CC(=O)Nc1ccc(-c2c(-c3ccc(C(=O)NC4(C)CC4)c(OC)c3)c3c(N)ncc(C#N)c3n2C)cc1 [Compound 169] | A+ (Selectivity of FGFR1/FGFR2 greater or equal to 500) | B (Selectivity of FGFR3/FGFR2 less than 100 but greater than or equal to 25) |
| < 5 nM | ≤ 10 nM | C=CC(=O)Nc1ccc(-c2c(-c3ccc(C(=O)NCC4CC4)c(OC)c3)c3c(N)ncc(C#N)c3n2C)cc1 [Compound 170] | A+ (Selectivity of FGFR1/FGFR2 greater or equal to 500) | B (Selectivity of FGFR3/FGFR2 less than 100 but greater than or equal to 25) |
| < 5 nM | ≤ 10 nM | C=CC(=O)Nc1ccc(-c2c(-c3ccc(C(=O)NC4CC(F)(F)C4)c(OC)c3)c3c(N)ncc(C#N)c3n2C)cc1 [Compound 188, 4-(2-(4-acrylamidophenyl)-4-amino-7-cyano-1-methyl-1H-pyrrolo[3,2-c]pyridin-3-yl)-N-(3,3-difluorocyclobutyl)-2-methoxybenzamide] | B (Selectivity of FGFR1/FGFR2 less than 300 but greater than or equal to 200) | B (Selectivity of FGFR3/FGFR2 less than 100 but greater than or equal to 25) |
| < 5 nM | ≤ 10 nM | C=CC(=O)Nc1ccc(-c2c(-c3ccc(C(=O)NCCF)c(OC)c3)c3c(N)ncc(C#N)c3n2C)cc1 [Compound 189, 4-(2-(4-acrylamidophenyl)-4-amino-7-cyano-1-methyl-1H-pyrrolo[3,2-c]pyridin-3-yl)-N-(2-fluoroethyl)-2-methoxybenzamide] | B (Selectivity of FGFR1/FGFR2 less than 300 but greater than or equal to 200) | B (Selectivity of FGFR3/FGFR2 less than 100 but greater than or equal to 25) |

— patent US20240383905A1, “FGFR INHIBITORS AND METHODS OF USE THEREOF” (3H PHARMACEUTICALS CO., LTD., priority 2021, published 2024)
